Laboratory results as given in paper PMC12679550 (ACS Chemical Neuroscience, 2025).
“Also recorded” adds a separate entry of the source. Like-named read-outs stand apart in the source and are kept apart here.

Assays:
α1AR = target: T1, α1AR (Homo sapiens, UniProt P35348)
T1 sequence (P35348 1-466): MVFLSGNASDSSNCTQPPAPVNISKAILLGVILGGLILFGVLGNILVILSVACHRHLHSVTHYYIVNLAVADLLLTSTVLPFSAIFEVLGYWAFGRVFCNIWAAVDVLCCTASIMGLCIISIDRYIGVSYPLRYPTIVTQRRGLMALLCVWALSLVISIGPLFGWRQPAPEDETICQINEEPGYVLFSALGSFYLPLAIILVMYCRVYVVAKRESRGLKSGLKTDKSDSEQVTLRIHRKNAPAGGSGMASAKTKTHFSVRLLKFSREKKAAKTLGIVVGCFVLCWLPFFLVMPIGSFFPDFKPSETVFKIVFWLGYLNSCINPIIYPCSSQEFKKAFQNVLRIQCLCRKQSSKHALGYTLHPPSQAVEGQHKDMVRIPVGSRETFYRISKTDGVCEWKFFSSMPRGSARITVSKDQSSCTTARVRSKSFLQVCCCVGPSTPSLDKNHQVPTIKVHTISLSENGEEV

human α2BRs = human α2BRs (Homo sapiens, UniProt P18089); settings: 10 μM screen
α2AR = target: T2, α2AR (Homo sapiens, UniProt P08913)
T2 sequence (P08913 1-465): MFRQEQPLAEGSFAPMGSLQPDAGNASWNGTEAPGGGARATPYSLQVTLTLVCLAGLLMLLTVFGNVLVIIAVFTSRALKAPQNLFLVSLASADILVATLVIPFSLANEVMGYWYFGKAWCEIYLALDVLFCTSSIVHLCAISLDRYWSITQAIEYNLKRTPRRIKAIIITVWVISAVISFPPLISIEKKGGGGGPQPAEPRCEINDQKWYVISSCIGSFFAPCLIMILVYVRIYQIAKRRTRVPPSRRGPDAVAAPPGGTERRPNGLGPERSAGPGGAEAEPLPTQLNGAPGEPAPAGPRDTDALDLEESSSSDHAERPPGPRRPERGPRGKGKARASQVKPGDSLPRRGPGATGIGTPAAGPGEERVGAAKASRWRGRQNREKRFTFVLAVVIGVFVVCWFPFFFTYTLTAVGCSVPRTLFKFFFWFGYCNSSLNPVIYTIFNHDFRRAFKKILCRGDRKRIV

rat α2AR = target: T3, rat α2AR (Rattus norvegicus, UniProt P22909); settings: agonist mode; HEK293 cells; Figure S2
T3 sequence (P22909 1-465): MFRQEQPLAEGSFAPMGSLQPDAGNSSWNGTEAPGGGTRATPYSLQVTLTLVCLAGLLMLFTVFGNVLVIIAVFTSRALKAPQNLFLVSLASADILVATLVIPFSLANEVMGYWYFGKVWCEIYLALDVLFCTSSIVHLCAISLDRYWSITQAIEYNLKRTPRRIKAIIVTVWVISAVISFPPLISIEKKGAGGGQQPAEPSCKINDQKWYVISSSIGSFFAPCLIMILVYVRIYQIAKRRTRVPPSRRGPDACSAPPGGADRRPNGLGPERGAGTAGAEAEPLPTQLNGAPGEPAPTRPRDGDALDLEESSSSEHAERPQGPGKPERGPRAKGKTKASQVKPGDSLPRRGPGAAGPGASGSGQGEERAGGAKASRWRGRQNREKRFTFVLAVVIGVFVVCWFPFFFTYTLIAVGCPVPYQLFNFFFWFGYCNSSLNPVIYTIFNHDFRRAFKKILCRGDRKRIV

human α2BRs, sequence (P18089 whole entry): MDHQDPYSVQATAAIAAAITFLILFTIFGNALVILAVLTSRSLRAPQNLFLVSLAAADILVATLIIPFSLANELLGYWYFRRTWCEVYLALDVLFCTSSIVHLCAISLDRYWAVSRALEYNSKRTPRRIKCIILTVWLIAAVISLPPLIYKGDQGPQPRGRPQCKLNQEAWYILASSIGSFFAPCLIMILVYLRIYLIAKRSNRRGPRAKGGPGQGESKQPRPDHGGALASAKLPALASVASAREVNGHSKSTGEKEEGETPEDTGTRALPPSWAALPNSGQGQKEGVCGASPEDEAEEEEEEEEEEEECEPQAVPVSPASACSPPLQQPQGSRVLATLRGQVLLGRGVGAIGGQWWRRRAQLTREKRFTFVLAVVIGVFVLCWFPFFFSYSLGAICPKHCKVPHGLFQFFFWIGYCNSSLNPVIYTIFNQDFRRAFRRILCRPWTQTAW

mitragynine
EC50 (α1AR; read-out: EC50, α11, α1AR-Gα11): 3.16 µM | EC50 (α1AR; read-out: EC50 at α1AR-Gα11 (abstract), partial agonist): ~3 µM | Emax as percent of clonidine's maximum response, α11 (α1AR; α1AR-Gα11): 27% | EC50, αq (α1AR; α1AR-Gαq): inactive | Activation of Gαi/o subtypes coupled to α2BRs (human α2BRs): no significant activity | Activation of α2AR-Gαs(short) (α2AR; Figure S1): did not activate α2AR–Gαs; also recorded: no effect | Activation of the seven Gαi/o-protein subtypes coupled to α2AR (α2AR; concentrations up to 30 μM): did not activate any of the seven Gαi/o-protein subtypes | Activation of Gαq or Gα11 via α2ARs (α2AR; data not shown): no effect | Kb (α2AR; read-out: Kb, antagonist, αi1, α2AR-Gαi1, antagonism of clonidine, Gaddum-Schild): 5.65 µM | EC50, αgust (α2AR; α2AR-Gαgust): inactive | EC50, αi2 (α2AR; α2AR-Gαi2): inactive | EC50, αi3 (α2AR; α2AR-Gαi3): inactive | EC50, αoA (α2AR; α2AR-GαoA): inactive | EC50, αoB (α2AR; α2AR-GαoB): inactive | EC50, αz (α2AR; α2AR-Gαz): inactive | Effect on forskolin-induced cAMP, rat α2AR in HEK293 (rat α2AR): no significant functional effects
